Measurements: ChEMBL document CHEMBL4265870, “Synthesis and biological evaluation of a new series of benzimidazole derivatives as antimicrobial, antiquorum-sensing and antitumor agents” (Eur J Med Chem, 2017)
≈ marks a conversion by molar mass, not a printed value. Calls of active or inactive are those of the source. The rule behind the calls is not given here.

Key:
Ehrlich [1] = assay: Antitumor activity against mouse EAC cells implanted in Swiss mouse assessed as increase in life span at 0.5 mg/mouse dosed for 9 days starting 1 day after tumor cell implantation relative to untreated control; assay type: functional
HCT-116 = assay: Cytotoxicity in human HCT116 cells assessed as reduction in cell viability by MTT assay; assay type: functional, cell-based
Mus musculus [2] = assay: Toxicity in mouse EAC cells implanted Swiss mouse assessed as hemoglobin level at 0.5 mg/mouse dosed for 9 days starting 1 day after tumor cell implantation (reference value: 8.15 g/dl); assay type: organism-based; settings: in vivo
Ehrlich [3] = assay: Antitumor activity against mouse EAC cells implanted in Swiss mouse assessed as tumor volume at 0.5 mg/mouse dosed for 9 days starting 1 day after tumor cell implantation (reference value: 9.85 ml); assay type: functional
WI-38 = assay: Cytotoxicity in human WI38 cells assessed as reduction in cell viability by MTT assay; assay type: cell-based
Staphylococcus aureus = assay: Antimicrobial activity against Staphylococcus aureus by two fold serial dilution method; assay type: functional
Mus musculus [4] = assay: Toxicity in mouse EAC cells implanted Swiss mouse assessed as RBC count at 0.5 mg/mouse dosed for 9 days starting 1 day after tumor cell implantation (reference value: 3.69 10^6/mm3)); assay type: organism-based; settings: in vivo
Ehrlich [5] = assay: Antitumor activity against mouse EAC cells implanted in Swiss mouse assessed as mouse survival time at 0.5 mg/mouse dosed for 9 days starting 1 day after tumor cell implantation (reference value: 14.5 days); assay type: functional
MCF7 = assay: Cytotoxicity in human MCF7 cells assessed as reduction in cell viability by MTT assay; assay type: functional, cell-based
Aspergillus fumigatus = assay: Antimicrobial activity against Aspergillus fumigatus 293 by two fold serial dilution method; assay type: functional; settings: Af293
HepG2 = assay: Cytotoxicity in human HepG2 cells assessed as reduction in cell viability by MTT assay; assay type: functional, cell-based
Calf thymus DNA = assay: Binding affinity to calf thymus DNA by TLC plate based assay; assay type: nucleic-acid assay; settings: Bos taurus
Escherichia coli = assay: Antimicrobial activity against Escherichia coli by two fold serial dilution method; assay type: functional
Bacillus cereus = assay: Antimicrobial activity against Bacillus cereus by two fold serial dilution method; assay type: functional
[6] = system: Chromobacterium violaceum; assay: Antiquorum-sensing activity against Chromobacterium violaceum ATCC 12472 assessed as reduction in violacein production at 5000 ug/ml a=; assay type: functional
Ehrlich [7] = assay: Antitumor activity against mouse EAC cells implanted in Swiss mouse assessed as viable cell count per 100 ul at 0.5 mg/mouse dosed for 9 days starting 1 day after tumor cell implantation (reference value: 83.2 x 10^6/100 ul); assay type: functional
Mus musculus [8] = assay: Toxicity in mouse EAC cells implanted Swiss mouse assessed as WBC count at 0.5 mg/mouse dosed for 9 days starting 1 day after tumor cell implantation (reference value: 23.96 10^3/mm3)); assay type: organism-based; settings: in vivo

Structure (SMILES) | ILS (Ehrlich [1]) [%] | IC50 (HCT-116) [µM] | Activity (Mus musculus [2]) [g/dL] | Activity (Ehrlich [3]) [mL] | IC50 (WI-38) [µM] | MIC (Staphylococcus aureus) [µg/mL] | Activity (Mus musculus [4]) [×10⁶ /mm3] | MST (Ehrlich [5]) [days] | IC50 (MCF7) [µM] | MIC (Aspergillus fumigatus) [µg/mL] | IC50 (HepG2) [µM] | Activity (Calf thymus DNA) | MIC (Escherichia coli) [µg/mL] | MIC (Bacillus cereus) [µg/mL] | diameter of the inhibition zone (DIZ) [6] [mm] | Activity (Ehrlich [7]) [×10⁶ No_unit] | Activity (Mus musculus [8]) [×10³ /mm3]
CC1=NN(Cc2nc3ccccc3[nH]2)C(=O)C1 | 110.34 | 42 | 11.47 | 4.16 | 246 | 156 (≈ 0.685 mM) | 4.55 | 31.5 | 62 | 312 (≈ 1.37 mM) | 54 | Active | > 2500 | 1250 (≈ 5.48 mM) | 4 | 45.38 | 11.26
O=c1[nH]cc(F)c(=O)[nH]1 [FLUOROURACIL] | 237.93 | 41 | 12.96 | 1.6 | 51 | – | 5.21 | 49 | 41.5 | – | 61 | – | – | – | – | 20.17 | 8.86
CCOC(=O)c1c(NCc2nc3ccccc3[nH]2)sc2c1CCCCC2 | 168.9 | 31 | 12.13 | 3.23 | 58 | > 2500 | 4.89 | 39 | 40 | > 2500 | 43 | inactive | > 2500 | > 2500 | 3 | 29.65 | 9.11
Fc1ccc2nc(NCc3nc4ccccc4[nH]3)sc2c1 | – | 238 | – | – | – | 156 (≈ 0.524 mM) | – | – | 242 | 1250 (≈ 4.19 mM) | 233 | Active | > 2500 | > 2500 | 11 | – | –
O=[N+]([O-])c1ccc2[nH]c(CN3CCN(c4ccc(F)cc4)CC3)nc2c1 | 206.98 | 14 | 13.15 | 2.32 | 298 | 1250 (≈ 3.52 mM) | 5.36 | 44.5 | 15 | 2500 (≈ 7.03 mM) | 22 | Active | 2500 (≈ 7.03 mM) | 2500 (≈ 7.03 mM) | <2 | 23.54 | 7.34
O=[N+]([O-])c1ccc2ncccc2c1NCc1nc2ccccc2[nH]1 | – | 204 | – | – | – | 1250 (≈ 3.91 mM) | – | – | 237 | 1250 (≈ 3.91 mM) | 259 | Active | 625 (≈ 1.96 mM) | 156 (≈ 0.489 mM) | 8 | – | –
OC(Cn1cncn1)(Cn1cncn1)c1ccc(F)cc1F [FLUCONAZOLE] | – | – | – | – | – | – | – | – | – | > 2500 | – | – | – | – | – | – | –
CC1=NN(Cc2nc3cc([N+](=O)[O-])ccc3[nH]2)C(=O)C1 | – | 200 | – | – | – | 2500 (≈ 9.15 mM) | – | – | 281 | 625 (≈ 2.29 mM) | 265 | – | > 2500 | 1250 (≈ 4.57 mM) | 3 | – | –
O=[N+]([O-])c1ccc2[nH]c(CNc3nc(-c4ccccc4)cs3)nc2c1 | – | 198 | – | – | – | > 2500 | – | – | 254 | 1250 (≈ 3.56 mM) | 226 | – | > 2500 | > 2500 | 6 | – | –
COc1ccc2c(c1)CCC/C2=N\NCc1nc2cc([N+](=O)[O-])ccc2[nH]1 | – | 45 | – | – | – | > 2500 | – | – | 78 | 2500 (≈ 6.84 mM) | 96 | – | > 2500 | > 2500 | <2 | – | –
COc1ccc2c(c1)CCC/C2=N\NCc1nc2ccccc2[nH]1 | – | 41 | – | – | – | 1250 (≈ 3.9 mM) | – | – | 63 | > 2500 | 80 | – | > 2500 | > 2500 | <2 | – | –
CC[n+]1c(-c2ccccc2)c2cc(N)ccc2c2ccc(N)cc21 | – | – | – | – | – | – | – | – | – | – | – | Active | – | – | – | – | –
O=[N+]([O-])c1ccc2[nH]c(CNc3nc4ccc(F)cc4s3)nc2c1 | – | 253 | – | – | – | > 2500 | – | – | 291 | 1250 (≈ 3.64 mM) | 263 | – | > 2500 | > 2500 | 6 | – | –
O=C1c2ccccc2C(=O)N1NCc1nc2ccccc2[nH]1 | 222.07 | 31 | 13.21 | 2.15 | 322 | > 2500 | 5.52 | 46.7 | 37 | 1250 (≈ 4.28 mM) | 32 | Active | > 2500 | > 2500 | 4 | 21.95 | 7.11
NS(=O)(=O)c1nnc(NCc2nc3ccccc3[nH]2)s1 | – | 156 | – | – | – | 625 (≈ 2.01 mM) | – | – | 228 | > 2500 | 162 | Active | 625 (≈ 2.01 mM) | > 2500 | <2 | – | –
Cc1c(NCc2nc3ccccc3[nH]2)c(=O)n(-c2ccccc2)n1C | – | 38 | – | – | – | 312 (≈ 0.937 mM) | – | – | 53 | 625 (≈ 1.87 mM) | 63 | Active | 2500 (≈ 7.5 mM) | 1250 (≈ 3.75 mM) | 6 | – | –
NS(=O)(=O)c1nnc(NCc2nc3cc([N+](=O)[O-])ccc3[nH]2)s1 | – | 176 | – | – | – | > 2500 | – | – | 230 | > 2500 | 184 | – | > 2500 | > 2500 | <2 | – | –
Oc1cc(O)c2c(c1)O[C@H](c1ccc(O)c(O)c1)[C@@H](O)C2 [CIANIDANOL] | – | – | – | – | – | – | – | – | – | – | – | – | – | – | 2 | – | –
CC1(C)S[C@@H]2[C@H](NC(=O)[C@H](N)c3ccccc3)C(=O)N2[C@H]1C(=O)O [AMPICILLIN] | – | – | – | – | – | 312 (≈ 0.894 mM) | – | – | – | – | – | – | 19.5 (≈ 0.0559 mM) | 1250 (≈ 3.58 mM) | – | – | –
O=[N+]([O-])c1ccc2[nH]c(CNc3c([N+](=O)[O-])ccc4ncccc34)nc2c1 | – | 256 | – | – | – | 2500 (≈ 6.86 mM) | – | – | 274 | 2500 (≈ 6.86 mM) | 265 | Active | 1250 (≈ 3.43 mM) | 312 (≈ 0.858 mM) | 4 | – | –
Cc1c(NCc2nc3cc([N+](=O)[O-])ccc3[nH]2)c(=O)n(-c2ccccc2)n1C | – | 44 | – | – | – | 625 (≈ 1.65 mM) | – | – | 78 | 2500 (≈ 6.61 mM) | 93 | – | 2500 (≈ 6.61 mM) | 1250 (≈ 3.3 mM) | <2 | – | –
